We go through 19 compounds from PubChem BioAssay (NCI).

Among the test systems are NCI-H226 lung; SF-539 CNS; HT29 colon; TK-10 renal; HCT-116 colon; HCT-15 colon; SN12C renal; CCRF-CEM leukemia; SK-MEL-28 melanoma.
Test in all cases: inhibition of tumour cell growth, NCI panel, 48 h

Where “and” joins values, the source holds several entries; their conditions need not be identical. Identical values can stand only once.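 How tested: cells in 96-well plates exposed to compound for 48 hours at five concentrations. GI50: concentration for 50% inhibition of growth. TGI is the concentration that stops growth completely.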 Where only a bound is given, the exact number is not on record here.

On to `Cc1cc2c(=O)cc(-c3ccc(Cl)cc3Cl)oc2c(C(=O)O)c1C`, for which the TGI in the test on NCI-H226 lung, in the test with SF-539 CNS, in the test with HT29 colon, in the test on TK-10 renal, in the test on HCT-116 colon and in the test with HCT-15 colon was above 100 µM in each case. Besides, the TGI with SN12C renal, with CCRF-CEM leukemia and in the test with SK-MEL-28 melanoma was above 100 µM in each case.

In the case of `CC[n+]1c(/C=C/c2ccc(N3CCCC3)cc2)cccc1/C=C/c1ccc(N2CCCC2)cc1`, the GI50 in the test with NCI-H226 lung is 0.146 µM; with SF-539 CNS it was 0.274 µM; in the test on HT29 colon it was 0.115 µM; in the test on TK-10 renal it was 0.359 µM; with HCT-116 colon, 0.0838 µM; with HCT-15 colon, 0.332 µM. Besides, the GI50 was 0.217 µM and 0.271 µM in the test on SN12C renal; 0.194 µM and 0.169 µM in the test on SK-MEL-28 melanoma. In addition, the TGI in the test on NCI-H226 lung is 1.49 µM; in the test with SF-539 CNS it was 1.44 µM; with HT29 colon, 0.375 µM; with TK-10 renal it was 2.38 µM; in the test on HCT-116 colon, 1.28 µM; with HCT-15 colon, 1.23 µM. Moreover, the TGI is 1.14 µM and 1.06 µM with SN12C renal; 0.374 µM and 0.321 µM in the test on SK-MEL-28 melanoma.

For `CCOc1ccc(N=C2NC(=O)C(CC(=O)Nc3ccc(Cl)cc3Cl)S2)cc1` (stereo unspecified), the TGI with SF-539 CNS, with HT29 colon, in the test with TK-10 renal, with HCT-15 colon, with SN12C renal and in the test with CCRF-CEM leukemia was above 100 µM throughout. In the test on SK-MEL-28 melanoma, this compound showed a TGI above 100 µM.

`C=CCC1=C2CCCCC2CCC1=O` (stereo unspecified): the TGI in the test on SF-539 CNS, with TK-10 renal, in the test with HCT-116 colon, in the test on HCT-15 colon, in the test on SN12C renal and in the test on CCRF-CEM leukemia was above 100 µM throughout. In the test with SK-MEL-28 melanoma, this compound came in with a TGI above 100 µM.

`COc1cc2cc(Oc3ccc(NC(=O)Nc4ccc(F)c(C(F)(F)F)c4)cc3)c(C)nc2cc1OCCN1CCOCC1`: the GI50 is 2.55 µM in the test on NCI-H226 lung; 1.77 µM in the test with SF-539 CNS; 3.07 µM in the test on HT29 colon; 4.94 µM with TK-10 renal; 1.11 µM in the test with HCT-116 colon; 1.73 µM with HCT-15 colon. In addition, the figures for the GI50 in the test with SN12C renal, with CCRF-CEM leukemia and in the test on SK-MEL-28 melanoma were 2.65 µM, 1.72 µM and 1.62 µM, respectively. The TGI in the test with NCI-H226 lung worked out at 13.2 µM; in the test with SF-539 CNS, 3.44 µM; in the test with HT29 colon, 21.8 µM; in the test with TK-10 renal, 25.1 µM; in the test with HCT-116 colon, 11.2 µM; in the test with HCT-15 colon, 4.19 µM. Also, the TGI is 15.5 µM in the test with SN12C renal, 11.5 µM in the test on CCRF-CEM leukemia and 3.13 µM in the test on SK-MEL-28 melanoma.

For the compound `COc1ccc(/C=C2\C(=O)Nc3ccccc32)cc1OC`, the TGI with NCI-H226 lung, in the test on SF-539 CNS, in the test with HT29 colon, with TK-10 renal, with HCT-116 colon and with HCT-15 colon was above 100 µM throughout. Further, the TGI in the test on SN12C renal, in the test with CCRF-CEM leukemia and in the test on SK-MEL-28 melanoma was above 100 µM throughout.

As to `Cc1cc2c(=O)cc(-c3ccc(Cl)c(Cl)c3)oc2c(C(=O)O)c1C`, the TGI with NCI-H226 lung, in the test with SF-539 CNS, in the test on HT29 colon, in the test on TK-10 renal, with HCT-116 colon and in the test on HCT-15 colon was above 100 µM in each case. The TGI in the test with SN12C renal, with CCRF-CEM leukemia and in the test on SK-MEL-28 melanoma was above 100 µM each time.

For `Cc1cc2c(=O)cc(-c3ccc(C(=O)O)cc3)oc2c(C(N)=O)c1C`, the TGI in the test with SF-539 CNS, in the test with HT29 colon, in the test on TK-10 renal, with HCT-116 colon, in the test on HCT-15 colon and with SN12C renal was above 100 µM each time. For the same compound, the TGI in the test with CCRF-CEM leukemia and in the test on SK-MEL-28 melanoma was above 100 µM throughout.

Take `COC(=O)c1oc([N+](=O)[O-])c(-c2ccccc2)c1-c1ccccc1`: the TGI with NCI-H226 lung, with SF-539 CNS, with HT29 colon, in the test with TK-10 renal, with HCT-116 colon and in the test on SN12C renal was above 100 µM each time. For the same compound, the TGI in the test on CCRF-CEM leukemia and in the test on SK-MEL-28 melanoma was above 100 µM throughout.

For the compound `CC12OC(C(=O)C13CC3)C1C(=O)c3cccc(O)c3C(=O)C12` (stereo unspecified), the GI50 in the test on NCI-H226 lung was 22.9 µM; with SF-539 CNS it was 5.36 µM; in the test with HT29 colon it was 10.6 µM; in the test with TK-10 renal it was 8.82 µM; with HCT-116 colon, 4.31 µM; in the test on HCT-15 colon it was 9.82 µM. For the same compound, the values for the GI50 in the test with SN12C renal and in the test on SK-MEL-28 melanoma were 4.96 µM and 23.1 µM, respectively. For the same compound, the TGI in the test on NCI-H226 lung was 78.5 µM; with SF-539 CNS, above 56.1 µM; with HT29 colon, above 100 µM; with TK-10 renal, 30.6 µM; with HCT-116 colon it was 6.42 µM; with HCT-15 colon, above 54.8 µM. The values for the TGI with SN12C renal and in the test with SK-MEL-28 melanoma were 18.9 µM and above 61.4 µM, respectively.

Take `Cc1cn2c(/C=N/NC3=NCCN3)c(-c3ccc(Cl)c([N+](=O)[O-])c3)nc2s1`: the GI50 with SF-539 CNS is 0.962 µM; with TK-10 renal it was 1.05 µM; in the test with HCT-116 colon it was 0.949 µM; in the test on SN12C renal it was 0.942 µM. Besides, the TGI in the test on SF-539 CNS is 1.85 µM; in the test with TK-10 renal it was 2.7 µM; in the test on HCT-116 colon, 1.72 µM; in the test with SN12C renal, 1.96 µM.

Turning to `O=C([CH-]C(=O)c1ccccc1)c1ccccc1.O=C([CH-]C(=O)c1ccccc1)c1ccccc1.[CH2-]CCC.[CH2-]CCC.[Sn+4]`, the GI50 is 0.26 µM in the test with NCI-H226 lung; 0.587 µM in the test with SF-539 CNS; 0.38 µM in the test with TK-10 renal; 0.917 µM in the test with HCT-116 colon; 0.636 µM in the test with HCT-15 colon; 0.509 µM in the test with SN12C renal. Also, the TGI in the test on NCI-H226 lung turned out to be 0.938 µM; in the test with SF-539 CNS, 1.94 µM; in the test with TK-10 renal, 1.11 µM; in the test on HCT-116 colon, 2.28 µM; in the test on HCT-15 colon, 2.14 µM; with SN12C renal it was 1.75 µM.

For the compound `Cc1ccccc1C(C#N)/C(=N/NC(N)=S)C(=O)Nc1c(C)cccc1C` (stereo unspecified), the TGI with NCI-H226 lung, in the test with HT29 colon, in the test on TK-10 renal, with HCT-116 colon, with SN12C renal and with CCRF-CEM leukemia was above 100 µM each time. The TGI in the test with SK-MEL-28 melanoma was above 100 µM.

As for `CN1C[C@@H]2CC(=O)CC[C@@H]2C[C@H]1C#N`, the TGI with NCI-H226 lung, in the test on HT29 colon, in the test on HCT-116 colon, in the test on HCT-15 colon, in the test with SN12C renal and with CCRF-CEM leukemia was above 100 µM in each case.

`O=C(O)COc1ccc2c3c1C(=O)CCC3CO2` (stereo unspecified): the TGI in the test on SF-539 CNS, in the test on HT29 colon, in the test with TK-10 renal, in the test on HCT-116 colon, in the test with HCT-15 colon and in the test on SN12C renal was above 100 µM throughout. The TGI in the test on CCRF-CEM leukemia and in the test on SK-MEL-28 melanoma was above 100 µM each time.

For `O=C(Cc1c(C(=O)Nc2ccccc2)sc(C(=O)Nc2ccccc2)c1CC(=O)Nc1ccccc1)Nc1ccccc1`, the TGI in the test on NCI-H226 lung, with SF-539 CNS, with HT29 colon, in the test on TK-10 renal, with HCT-116 colon and in the test on SN12C renal was above 100 µM in each case. The TGI is above 100 µM with CCRF-CEM leukemia and 19.8 µM with SK-MEL-28 melanoma.

On to `CN(CC(=O)O)S(=O)(=O)c1ccc(Cl)cc1`, for which the TGI in the test on NCI-H226 lung, with SF-539 CNS, in the test on HT29 colon, with TK-10 renal, in the test on HCT-15 colon and with SN12C renal was above 100 µM each time. Besides, the TGI with CCRF-CEM leukemia and in the test with SK-MEL-28 melanoma was above 100 µM each time.

Turning to `O=C(O)c1cc(C(=O)C(=O)c2cc(C(=O)O)c(O)c3ccccc23)c2ccccc2c1O`, the TGI in the test with NCI-H226 lung, in the test with SF-539 CNS, with HT29 colon, in the test with TK-10 renal, in the test with HCT-116 colon and in the test on HCT-15 colon was above 100 µM throughout. Also, the TGI with SN12C renal and in the test on SK-MEL-28 melanoma was above 100 µM each time.

Turning to `O=C(O)c1ccc(NCn2nc(-c3ccccc3O)oc2=S)cc1O`, the GI50 in the test on NCI-H226 lung was 21 µM; in the test with HT29 colon, above 100 µM; in the test with TK-10 renal it was above 100 µM; in the test with HCT-116 colon, 44.9 µM; in the test on HCT-15 colon, 32 µM; in the test on SN12C renal, 8.85 µM. In the test on SK-MEL-28 melanoma, the GI50 is above 100 µM. Moreover, the TGI is above 100 µM with NCI-H226 lung; above 100 µM in the test with HT29 colon; above 100 µM in the test on TK-10 renal; above 100 µM in the test on HCT-116 colon; 92.6 µM with HCT-15 colon; 60.1 µM in the test with SN12C renal. Further, the TGI in the test with SK-MEL-28 melanoma was above 100 µM.
